Each structure is given as a SMILES string.

Programmed cell death 1 ligand 1, sequence (Q9NZQ7 whole entry): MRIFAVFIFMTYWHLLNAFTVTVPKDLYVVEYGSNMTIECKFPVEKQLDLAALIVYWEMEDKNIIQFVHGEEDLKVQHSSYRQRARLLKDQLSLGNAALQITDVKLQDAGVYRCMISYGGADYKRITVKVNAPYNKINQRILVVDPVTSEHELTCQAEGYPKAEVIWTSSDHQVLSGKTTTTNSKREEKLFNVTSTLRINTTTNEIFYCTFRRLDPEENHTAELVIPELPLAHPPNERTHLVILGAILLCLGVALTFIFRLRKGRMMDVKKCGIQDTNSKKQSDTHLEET

One data set concerns the target Programmed cell death 1 ligand 1 (Homo sapiens, UniProt Q9NZQ7). The experiment in a line: Inhibition of PDL1 (unknown origin).
Settings: not given
For orientation: IC50 means the point on the concentration scale where inhibition reaches its midpoint. In the case of `C[C@@H](O)[C@H](NCc1cc(Cl)c(OCc2cccc(-c3ccccc3)c2Br)cc1OCC1CC1)C(=O)O`, the midpoint of inhibition, the IC50, lay at 10.2 nM.

As to `N#Cc1cncc(COc2cc(OC3CCc4c(-c5ccccc5)cccc43)c(Cl)cc2CN[C@@H](CO)C(=O)O)c1` (stereo partly drawn), the IC50 is less than 100 nM.

Consider `Cc1cc(C(=O)Nc2cccc(-c3ccc4c(c3)OCCO4)c2C)ncc1CN1CCCC[C@H]1C(=O)O`, for which the IC50 was less than 10 nM.

Consider `N#Cc1c(NC(=O)c2nc3c(s2)CNCC3)cccc1-c1ccc2c(c1)OCCO2`, for which the concentration for half-maximal inhibition (IC50) was less than 100 nM.

The target of the next data set is Programmed cell death protein 1/Programmed cell death 1 ligand 1 (Homo sapiens, UniProt Q15116+Q9NZQ7). The experiment in a line: Inhibition of Tag2-PD-1/Tag1-PDL-1 (unknown origin) interaction incubated for 15 mins by TR-FRET assay. Type of data set: protein-complex assay.
Programmed cell death protein 1/Programmed cell death 1 ligand 1, sequence (Q15116 whole entry): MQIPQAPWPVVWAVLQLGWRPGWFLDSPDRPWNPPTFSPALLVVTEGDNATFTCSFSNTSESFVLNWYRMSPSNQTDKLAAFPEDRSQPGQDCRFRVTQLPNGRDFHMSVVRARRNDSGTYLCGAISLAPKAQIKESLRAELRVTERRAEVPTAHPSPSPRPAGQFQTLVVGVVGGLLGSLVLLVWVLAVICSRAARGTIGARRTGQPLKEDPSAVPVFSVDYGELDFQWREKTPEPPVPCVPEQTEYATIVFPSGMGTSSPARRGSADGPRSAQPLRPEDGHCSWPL
Programmed cell death protein 1/Programmed cell death 1 ligand 1, sequence (Q9NZQ7 whole entry): as the sequence (Q9NZQ7 whole entry) above
Settings: not given
(TR-FRET usually uses a lanthanide donor and a delayed reading to cut background.)
As for `O=C(O)C1CCCN(Cc2ccc3c(Nc4cccc(-c5ccc6c(c5)OCCO6)c4Cl)nsc3c2)C1` (racemic), half-maximal inhibition (IC50) required 517 nM.

`C[C@H](NCc1ccc2c(Nc3cccc(-c4ccc5c(c4)OCCO5)c3Cl)nsc2c1)C(=O)O` came in with an IC50 of 44.4 nM.

`O=C(O)CNCc1ccc2c(Nc3cccc(-c4ccc5c(c4)OCCO5)c3Cl)nsc2c1` registered an IC50 of 35.6 nM.

`CC1(O)CCN(Cc2ccc3c(Nc4cccc(-c5ccc6c(c5)OCCO6)c4Cl)nsc3c2)C1` (racemic) returned an IC50 of 98.7 nM.

For `O=C(O)C1CCN(Cc2ccc3c(Nc4cccc(-c5ccc6c(c5)OCCO6)c4Cl)nsc3c2)C1` (racemic), it took 73.3 nM to reach half-maximal inhibition (IC50).

In turn, `CN(CC(=O)O)Cc1ccc2c(Nc3cccc(-c4ccc5c(c4)OCCO5)c3Cl)nsc2c1` returned an IC50 of 147 nM. This IC50 lies about 2-fold higher than the previous one.

For `CC1(O)CCN(Cc2ccc3snc(Nc4cccc(-c5ccc6c(c5)OCCO6)c4Cl)c3c2)C1` (racemic), the IC50 is 177 nM.

On to `OC1CCCN(Cc2ccc3c(Nc4cccc(-c5ccc6c(c5)OCCO6)c4Cl)nsc3c2)C1` (racemic), for which the IC50 is 164 nM.

Turning to `COC[C@H](NCc1ccc2c(Nc3cccc(-c4ccc5c(c4)OCCO5)c3Cl)nsc2c1)C(=O)O`, the IC50 was 79.1 nM. Compared with the last compound, the IC50 is about 2.1-fold lower.

In turn, `O=C(O)[C@H](CO)NCc1ccc2c(Nc3cccc(-c4ccc5c(c4)OCO5)c3Cl)nsc2c1` returned an IC50 of 34.7 nM.

Consider `OCC(CO)NCc1ccc2c(Nc3cccc(-c4ccc5c(c4)OCCO5)c3Cl)nsc2c1`, for which the IC50 amounted to 58.3 nM.

With `O=C(O)C[C@H](NCc1ccc2c(Nc3cccc(-c4ccc5c(c4)OCCO5)c3Cl)nsc2c1)C(=O)O`, inhibition was half-maximal at 474 nM (IC50).

`OC1CCN(Cc2ccc3snc(Nc4cccc(-c5ccc6c(c5)OCCO6)c4Cl)c3c2)CC1` had an IC50 of 854 nM.

As to `O=C(O)[C@H](CO)NCc1ccc2c(Nc3cccc(-c4cccc(O)c4)c3Cl)nsc2c1`, 143 nM corresponded to half-maximal inhibition (IC50).

`C[C@@H](NCc1ccc2c(Nc3cccc(-c4ccc5c(c4)OCCO5)c3Cl)nsc2c1)C(=O)O` had an IC50 of 43.4 nM.

For `O=C(O)[C@H](CO)NCc1ccc2c(Nc3cccc(-c4ccc5c(c4)OCCO5)c3)nsc2c1`, the 50% inhibitory concentration (IC50) was more than 1000 nM.

`O[C@@H]1CCN(Cc2ccc3c(Nc4cccc(-c5ccc6c(c5)OCCO6)c4Cl)nsc3c2)C1` gave an IC50 of 106 nM.

Consider `COc1ccc(-c2cccc(Nc3nsc4cc(CN[C@@H](CO)C(=O)O)ccc34)c2Cl)cc1OC`, for which the 50% inhibitory concentration (IC50) is more than 1000 nM.

`O[C@H]1CCN(Cc2ccc3c(Nc4cccc(-c5ccc6c(c5)OCCO6)c4Cl)nsc3c2)C1`: the IC50 was found to be 109 nM. This counts as sub-micromolar.

On to `CC(C)[C@H](NCc1ccc2c(Nc3cccc(-c4ccc5c(c4)OCCO5)c3Cl)nsc2c1)C(=O)O`, for which it took 73.7 nM to reach half-maximal inhibition (IC50).

In turn, `O=C(O)[C@H](CO)NCc1ccc2c(Nc3cccc(-c4ccc5c(c4)OCCO5)c3Cl)nsc2c1` returned an IC50 of 8.5 nM. Compared with the last compound, the IC50 is about 8.7-fold lower.

`OC1CCN(Cc2ccc3c(Nc4cccc(-c5ccc6c(c5)OCCO6)c4Cl)nsc3c2)CC1` registered a 50% inhibitory concentration (IC50) of 158 nM.

The compound `OC1CCCN(Cc2ccc3snc(Nc4cccc(-c5ccc6c(c5)OCCO6)c4Cl)c3c2)C1` (racemic) displayed an IC50 of 327 nM.

Compound `Cc1c(Nc2nsc3cc(CN[C@@H](CO)C(=O)O)ccc23)cccc1-c1ccc2c(c1)OCCO2` showed an IC50 of 78 nM.

Consider `O=C(O)[C@H](CO)NCc1ccc2c(Nc3cccc(-c4ccc5c(c4)OCCO5)c3F)nsc2c1`, for which the IC50 is 486 nM.

With `O=C(O)C1CCN1Cc1ccc2c(Nc3cccc(-c4ccc5c(c4)OCCO5)c3Cl)nsc2c1` (racemic), the IC50 was 131 nM.

`OC1CCN(Cc2ccc3c(Nc4cccc(-c5ccc6c(c5)OCCO6)c4Cl)nsc3c2)C1` (racemic) displayed an IC50 of 58.4 nM.

`O=C(O)[C@@H](CO)NCc1ccc2c(Nc3cccc(-c4ccc5c(c4)OCCO5)c3Cl)nsc2c1` gave an IC50 of 10.8 nM.

In the case of `O=C(O)[C@H](CO)NCc1ccc2c(Nc3cccc(-c4ccccc4)c3Cl)nsc2c1`, the IC50 is 40.3 nM.

`O=C(O)[C@@H]1C[C@@H](O)CN1Cc1ccc2c(Nc3cccc(-c4ccc5c(c4)OCCO5)c3Cl)nsc2c1` returned an IC50 of 17.7 nM.

`OC1CCN(Cc2ccc3snc(Nc4cccc(-c5ccc6c(c5)OCCO6)c4Cl)c3c2)C1` (racemic): the IC50 was 251 nM.

`O=C(O)C1CCN(Cc2ccc3c(Nc4cccc(-c5ccc6c(c5)OCCO6)c4Cl)nsc3c2)CC1` showed a 50% inhibitory concentration (IC50) of 60.1 nM.

`COc1c(Nc2nsc3cc(CN[C@@H](CO)C(=O)O)ccc23)cccc1-c1ccc2c(c1)OCCO2` registered an IC50 of more than 1000 nM.

`O=C(O)CCCCOc1ccc(-c2cccc(Nc3nsc4cc(CN[C@@H](CO)C(=O)O)ccc34)c2Cl)cc1` registered an IC50 of more than 1000 nM.

Consider `O=C(O)CCCCOc1cccc(-c2cccc(Nc3nsc4cc(CN[C@@H](CO)C(=O)O)ccc34)c2Cl)c1`, for which the IC50 is more than 1000 nM.

In turn, `O=C(O)C1CCCN1Cc1ccc2c(Nc3cccc(-c4ccc5c(c4)OCCO5)c3Cl)nsc2c1` (racemic) came in with an IC50 of 110 nM.

As to `O=C(O)[C@H](CO)NCc1ccc2c(Nc3cccc(-c4ccc5nccnc5c4)c3Cl)nsc2c1`, the IC50 is more than 1000 nM.

In turn, `O=C(O)[C@H](CO)NCc1ccc2c(Nc3cccc(-c4cccc5c4CCN5CCCN4CCC(O)C4)c3Cl)nsc2c1` (stereo partly drawn) returned an IC50 of 231 nM.

The compound `O=C(O)C1CN(Cc2ccc3c(Nc4cccc(-c5ccc6c(c5)OCCO6)c4Cl)nsc3c2)C1` showed an IC50 of 72.6 nM.

Tested on in a further data set: not listed separately
The experiment in a line: Growth inhibition of CHO cells expressing PDL-1/TCRa incubated for 24 hrs by Cell Titer-Glo luminescent cell viability assay. Format: cell-based, Cricetulus griseus. The following applies: chinese hamster. On the technique in general: ATP-based viability assays read luminescence as a measure of living cells.
The GI50 is the concentration at which growth is held to half of that of the control. For `O=C(O)[C@H](CO)NCc1ccc2c(Nc3cccc(-c4ccc5c(c4)OCCO5)c3Cl)nsc2c1`, the GI50 at 24 h is more than 30000 nM.

`Cc1c(COc2cc(OCc3cccc(C#N)c3)c(CN3C[C@H](O)C[C@@H]3C(=O)O)cc2Cl)cccc1-c1ccc2c(c1)OCCO2`: the GI50 at 24 h was more than 30000 nM.

Tested on in the next data set: not listed separately
The experiment in a line: Growth inhibition of CHO cells expressing PDL-1/TCRa measured after 24 hrs co-culturing with human Jurkat cells expressing PD-1/NFAT-Luc in presence of compound by Cell Titer-Glo luminescent cell viability assay. Type of data set: cell-based, Cricetulus griseus. The following applies: chinese hamster.
Regarding `O=C(O)[C@H](CO)NCc1ccc2c(Nc3cccc(-c4ccc5c(c4)OCCO5)c3Cl)nsc2c1`, the GI50 at 24 h is more than 30000 nM.

Take `Cc1c(COc2cc(OCc3cccc(C#N)c3)c(CN3C[C@H](O)C[C@@H]3C(=O)O)cc2Cl)cccc1-c1ccc2c(c1)OCCO2`: the GI50 at 24 h is more than 30000 nM.

Tested on in another data set: not listed separately
As to the kind of experiment: Inhibition of PD-1/PDL-1-mediated immune checkpoint using CHO cells expressing PDL-1/TCRa and human Jurkat cells expressing PD-1/NFAT-Luc assessed as Jurkat T lymphocyte activation measured after 6 hrs by luciferase reporter gene based luminescence assay.
Settings: not given
A general note: Reporter assays use an easily measured gene product as a stand-in for the process of interest.
As usually defined, the EC50 is the concentration that produces a half-maximal response. For `O=C(O)[C@H](CO)NCc1ccc2c(Nc3cccc(-c4ccc5c(c4)OCCO5)c3Cl)nsc2c1`, the EC50 amounted to 5600 nM and the inhibition result is “Dose-Dependent Effect”.

In the case of `Cc1c(COc2cc(OCc3cccc(C#N)c3)c(CN3C[C@H](O)C[C@@H]3C(=O)O)cc2Cl)cccc1-c1ccc2c(c1)OCCO2`, the concentration for a half-maximal effect (EC50) was found to be 3100 nM and the inhibition entry was “Dose-Dependent Effect”.

Tested on in a further data set: not listed separately
As to the kind of experiment: Inhibition of PD-1/PDL-1-mediated immune checkpoint using CHO cells expressing PDL-1/TCRa and human Jurkat cells expressing PD-1/NFAT-Luc assessed as Jurkat T lymphocyte activation by measuring maximal luminescence value measured after 6 hrs by luciferase reporter gene based luminescence assay.
Settings: not given
Regarding `O=C(O)[C@H](CO)NCc1ccc2c(Nc3cccc(-c4ccc5c(c4)OCCO5)c3Cl)nsc2c1`, the RLU was 3260.

As to `Cc1c(COc2cc(OCc3cccc(C#N)c3)c(CN3C[C@H](O)C[C@@H]3C(=O)O)cc2Cl)cccc1-c1ccc2c(c1)OCCO2`, the RLU is 2240.

These data come from ChEMBL document CHEMBL4814029, “Design, synthesis, and structure-activity relationship of programmed cell death-1/programmed cell death-ligand 1 interaction inhibitors bearing a benzo[d]isothiazole scaffold” (Eur J Med Chem, 2021).
